In one test the test system is HTB-54. The test is described as follows: Antiproliferative MTT assay, HTB-54 lung cancer cells. It counts as cell-based, human. The method, then: (§1) The antiproliferative activities of the cinnamyl and benzodioxyl derivatives were assessed against six human cell lines of three different types of cancer (colon, lung, and breast) using the 3-(4,5-dimethylthiazol-2-yl)-2,5-diphenyltetrazolium bromide (MTT) assay at seven concentrations for 48 h. The results are expressed as the IC50 values and are outlined in Table 1.
(§2) The cell lines were obtained from the American Type Culture Collection (ATCC). All the cancer cell lines (HT-29, HCT-116, H1299, HTB-54, MDA-MB-231 and MCF-7) and the nontumorigenic cells (184B5) were maintained in RPMI 1640 medium (Gibco), supplemented with 10% fetal bovine serum (FBS; Gibco) and 1% antibiotics (10.00 units/mL penicillin and 10.00 mg/mL streptomycin; Gibco). Cells were preserved in tissue culture flasks at 37 °C and 5% CO2. Culture medium was replaced every three days.
(§3) The cytotoxic effect of each compound was initially tested at seven different concentrations ranging between 0.5 and 100 µM in the cell lines mentioned above. The cells were seeded (1 × 10^4 cells per well) in 96-well plates and incubated at 37 °C and 5% CO2 for 24 h. After attachment, cells were treated with either dimethyl sulfoxide (DMSO) or increasing concentrations of the corresponding selenocompound for 48 h. The effect of the compounds on cell viability was determined by the MTT assay. In brief, 20 µL of MTT (5 mg/mL) was added to each well 2.5 h prior to experiment termination. At the end of the incubation, the medium was removed, and the formazan crystals were dissolved in 50 µL of DMSO. Absorbance was measured at 550 nm on a microplate reader. IC50 values were calculated using OriginPro 8.5.1. software by nonlinear curve fitting. Selectivity indexes were calculated as the ratio of the IC50 values determined for the nonmalignant and the tumoral cells in the breast cell lines (IC50 (184B5)/IC50 (MDA-MB-231) and IC50 (184B5)/IC50 (MCF-7)). Data were obtained from at least three independent experiments performed in triplicates.
On the technique in general: Tetrazolium assays rely on reduction of a dye to a coloured formazan, in cell work by metabolically active cells.

The test system of the next test is 184B5. Kind of test: MTT assay in nonmalignant mammary gland cells 184B5. The class given is cell-based. The conditions noted are these: for IC50: read-out: IC50 184B5. The method, then:
To assess their possible selectivity, the synthesized selenocompounds were then tested in a mammary gland (184B5) nonmalignant cell line, and the selectivity indexes (SI) were determined as the ratio of the IC50 values obtained for the nonmalignant cells and the homolog cancer cells.
as §2, §3

In another test the test system is H1299. Kind of test: Antiproliferative MTT assay, H1299 lung cancer cells. The class given is cell-based, human. The method, then: as §1, §2, §3
The subject of a further test is K. pneumoniae. Kind of test: MIC and MBC assay, K. pneumoniae. The class given is cell-based, Klebsiella pneumoniae. Particulars: for MIC / MBC: Klebsiella pneumoniae; for MIC: read-out: MIC K. pneumoniae; for MBC: read-out: MBC K. pneumoniae. On the procedure: (§4) The minimum inhibitory concentration (MIC) and the minimum bactericidal concentration (MBC) values of the selenocompounds were determined in a panel of six bacterial strains as a first approach to assess their antibacterial activity. Thus, the synthesized derivatives were tested against the Gram-negative bacteria Escherichia coli (E. coli), Klebsiella pneumoniae (K. pneumoniae) and Citrobacter freundii (C. freundii); and the Gram-positive bacteria Staphylococcus aureus (S. aureus), Streptococcus faecalis (S. faecalis), and Staphylococcus epidermidis (S. epidermidis). […]
(§5) All the selenocompounds were screened for their in vitro inhibitory activity against three Gram-negative (E. coli, K. pneumoniae and C. freundii) and three Gram-positive (S. aureus, S. faecalis and S. epidermidis) bacteria. Bacterial strains were kindly provided by the Department of Microbiology and Parasitology of the University of Navarra. The bacterial cells were grown in tryptic soy agar (TSA) plates and maintained at 4 °C.
(§6) The compounds were firstly dissolved in DMSO and serially diluted in a 96-well plate in tryptic soy broth (TSB) with eleven concentrations ranging from 400 µg/mL to 0.4 µg/mL with a final volume of 100 µL. Subsequently, 100 µL of a diluted suspension of bacterial cells with an optical density of 0.125 measured at 600 nm in TSB (inoculum of approximately 10^5 CFU/mL) was added to each well and incubated at 37 °C for 24 h. After the incubation period, each well was analyzed for the presence or absence of visual growth of bacterial cells. The lowest concentration of the test compound at which no visible growth occurred was determined as the MIC values. After incubation, 10 µL of the bacterial suspension from each well that presented antibacterial activity was added to divided TSA plates and incubated at 37 °C overnight.

A further test deals with C. freundii. Kind of test: MIC and MBC assay, C. freundii. The class given is cell-based, Citrobacter freundii. Particulars: for MIC / MBC: Citrobacter freundii; for MIC: read-out: MIC C. freundii; for MBC: read-out: MBC C. freundii. On the procedure: as §4, §5, §6
In another test the test system is E. coli. Kind of test: MIC and MBC assay, E. coli. Particulars: Gram-negative; for MBC / MIC: Escherichia coli; for MIC / MIC E. coli: 24 h at 37 °C. It counts as cell-based, Escherichia coli. On the procedure: as §4, §5, §6
For the next test, the system named is HT-29. Kind of test: Antiproliferative MTT assay, HT-29 colon cancer cells. The class given is cell-based, human. The method, then: as §1, §2, §3
Another test relates to HCT-116. Kind of test: Antiproliferative MTT assay, HCT-116 colon cancer cells. The class given is cell-based, human. The method, then:
as §1, §2, §3

A further test concerns S. epidermidis. Kind of test: MIC and MBC assay, S. epidermidis. It counts as cell-based, Staphylococcus epidermidis. Particulars: for MIC / MBC: Staphylococcus epidermidis; for MIC: read-out: MIC S. epidermidis; for MBC: read-out: MBC S. epidermidis. The method, then:
as §4, §5, §6

Setting [1] is: Homo sapiens, HTB-54, MTT assay, 48 h, mean ± SD, read-out: IC50 HTB-54.
Where [2] appears, read: Homo sapiens, 184B5, 48 h, nontumorigenic cells, MTT assay, 48 h, mean ± SD.
The mark [3] stands for this setting: nontumorigenic cells, MTT assay, 48 h, mean ± SD.
The mark [4] stands for this setting: Homo sapiens, NCI-H1299, 48 h, MTT assay, 48 h, mean ± SD, read-out: IC50 H1299.
Setting [5] is: MTT assay, 48 h, mean ± SD, read-out: IC50 H1299.
The mark [6] stands for this setting: Homo sapiens, HT-29, 48 h, MTT assay, 48 h, mean ± SD, read-out: IC50 HT-29.
The mark [7] stands for this setting: MTT assay, 48 h, mean ± SD, read-out: IC50 HT-29.
Where [8] appears, read: Homo sapiens, HCT-116, 48 h, MTT assay, 48 h, mean ± SD, read-out: IC50 HCT-116.
Where [9] appears, read: MTT assay, 48 h, mean ± SD, read-out: IC50 HTB-54.
Setting [10] is: MTT assay, 48 h, mean ± SD, read-out: IC50 HCT-116.

In brackets after ≈: the same amount, converted by molar mass. Read-outs that look alike come from different tables or passages of the source.

For `N#C[Se]C/C=C/c1ccccc1` [Compound 1a, (E)-(3-selenocyanatoprop-1-en-1-yl)benzene], the IC50 (commonly the concentration needed to halve the response being measured) in the test with HTB-54 (Homo sapiens, HTB-54, 48 h, read-out: IC50 HTB-54, MTT assay, 48 h, mean ± SD) was greater than 50 µM; in the test on HTB-54 (read-out: IC50 HTB-54, MTT assay, 48 h, mean ± SD), 58.7 ± 9 µM; in the test on 184B5 (Homo sapiens, 184B5, 48 h) it was 55 ± 6.7 µM; with H1299 (Homo sapiens, NCI-H1299, 48 h, read-out: IC50 H1299, MTT assay, 48 h, mean ± SD), greater than 50 µM; with H1299 (read-out: IC50 H1299, MTT assay, 48 h, mean ± SD), 82.5 ± 5.9 µM; in the test with HT-29 (Homo sapiens, HT-29, 48 h, read-out: IC50 HT-29, MTT assay, 48 h, mean ± SD), greater than 50 µM. Moreover, the IC50 in the test with HT-29 (read-out: IC50 HT-29, MTT assay, 48 h, mean ± SD) is 61.2 ± 9.7 µM; in the test on HCT-116 (Homo sapiens, HCT-116, 48 h, read-out: IC50 HCT-116, MTT assay, 48 h, mean ± SD), greater than 50 µM; in the test on HCT-116 (read-out: IC50 HCT-116, MTT assay, 48 h, mean ± SD) it was 68.8 ± 6.3 µM. Besides, the MIC (usually the lowest concentration found to suppress growth) in the test on K. pneumoniae (24 h) amounted to 100 µg/mL (≈ 450 µM); with C. freundii (24 h), 100 µg/mL (≈ 450 µM); in the test with E. coli, 100 µg/mL (≈ 450 µM); in the test on S. epidermidis (24 h) it was 12.5 µg/mL (≈ 56.3 µM). The MBC (usually the lowest tested concentration that kills the bacteria rather than only halting them) is 100 µg/mL (≈ 450 µM) in the test on K. pneumoniae, 100 µg/mL (≈ 450 µM) in the test on C. freundii, greater than 200 µg/mL with E. coli and 12.5 µg/mL (≈ 56.3 µM) in the test with S. epidermidis.

For `N#C[Se]Cc1ccc2c(c1)OCO2` [Compound 2a, 5-(Selenocyanatomethyl)benzo[d][1,3]dioxole], the IC50 in the test with HTB-54 (setting [1]) was 45.2 ± 8.2 µM; in the test on 184B5 (setting [2]), roughly 50 µM; in the test with 184B5 (setting [3]) it was 48.6 ± 2.1 µM; with H1299 (setting [4]), less than 12 µM; in the test with H1299 (setting [5]), 11.9 ± 3.7 µM; in the test with HT-29 (setting [6]), less than 12 µM. Moreover, the IC50 was 11.9 ± 3.4 µM in the test with HT-29 (setting [7]) and 69.7 ± 5.3 µM in the test on HCT-116 (setting [8]). Also, the MIC was found to be 50 µg/mL (≈ 208 µM) with K. pneumoniae (Gram-negative, 24 h at 37 °C); 100 µg/mL (≈ 416 µM) in the test with C. freundii (Gram-negative, 24 h at 37 °C); 50 µg/mL (≈ 208 µM) in the test on E. coli; 12.5 µg/mL (≈ 52.1 µM) with S. epidermidis (Gram-positive, 24 h at 37 °C). Further, the MBC in the test with K. pneumoniae (Gram-negative) came to 50 µg/mL (≈ 208 µM); in the test with C. freundii (Gram-negative), 100 µg/mL (≈ 416 µM); with E. coli, 50 µg/mL (≈ 208 µM); with S. epidermidis (Gram-positive), 12.5 µg/mL (≈ 52.1 µM). Besides, the “MIC S. epidermidis” value with S. epidermidis (Gram-positive, 24 h at 37 °C) is no more than 25 µg/mL.

On to `O=C(CC[Se]CC=Cc1ccccc1)[c-]1cccc1.[Fe+2].c1cc[cH-]c1` [Compound 1c, 3-(Cinnamylselanyl)-1-ferrocenylpropan-1-one], for which the IC50 was 32.3 ± 3.2 µM in the test with HTB-54 (setting [9]); 24.6 ± 0.4 µM with 184B5 (setting [3]); 70.6 ± 6.6 µM in the test on H1299 (setting [5]); greater than 100 µM in the test with HT-29 (setting [7]); greater than 100 µM in the test on HCT-116 (setting [10]). Also, in the test on K. pneumoniae (Gram-negative, 24 h at 37 °C), the “MIC K. pneumoniae” value is greater than 200 µg/mL. The “MIC C. freundii” value against C. freundii (Gram-negative, 24 h at 37 °C) is greater than 200 µg/mL. The “MIC E. coli” value against E. coli is greater than 200 µg/mL. The “MIC S. epidermidis” value in the test with S. epidermidis (Gram-positive, 24 h at 37 °C) is greater than 200 µg/mL.

Turning to `C(=C\c1ccccc1)/C[Se][Se]C/C=C/c1ccccc1` [Compound 1b, 1,2-Dicinnamyldiselenide], the IC50 with HTB-54 (setting [1]) is 50.1 ± 5.9 µM; in the test on 184B5 (setting [2]) it was greater than 100 µM; with H1299 (setting [4]), less than 40 µM; in the test on H1299 (setting [5]), 28.7 ± 2.6 µM; with HT-29 (setting [6]), less than 40 µM; in the test on HT-29 (setting [7]) it was 36 ± 5.4 µM. Further, the values for the IC50 with HCT-116 (setting [8]) and with HCT-116 (setting [10]) were less than 40 µM and 36.6 ± 6.7 µM, respectively. Also, the “IC50 184B5” value in the test on 184B5 (setting [3]) is given as “not toxic”. The MIC with K. pneumoniae (Gram-negative, 24 h at 37 °C) is greater than 200 µg/mL; in the test on C. freundii (Gram-negative, 24 h at 37 °C), greater than 200 µg/mL; with E. coli it was greater than 200 µg/mL; in the test on S. epidermidis (Gram-positive, 24 h at 37 °C), greater than 200 µg/mL.

Turning to `O=C(CC[Se]Cc1ccc2c(c1)OCO2)[c-]1cccc1.[Fe+2].c1cc[cH-]c1` [Compound 2c, 3-((Benzo[d][1,3]dioxol-5-ylmethyl)selanyl)-1-ferrocenylpropan-1-one], the IC50 is 29.7 ± 2.9 µM in the test with HTB-54 (setting [9]); 50.1 ± 4.5 µM with 184B5 (setting [3]); 45.2 ± 7.2 µM in the test on H1299 (setting [5]); 21.4 ± 4.3 µM with HT-29 (setting [7]); greater than 100 µM in the test on HCT-116 (setting [10]). Further, the “MIC K. pneumoniae” value against K. pneumoniae (Gram-negative, 24 h at 37 °C) was greater than 200 µg/mL. Besides, the “MIC C. freundii” value against C. freundii (Gram-negative, 24 h at 37 °C) was greater than 200 µg/mL. Besides, the “MIC E. coli” value in the test with E. coli is greater than 200 µg/mL. The “MIC S. epidermidis” value with S. epidermidis (Gram-positive, 24 h at 37 °C) was greater than 200 µg/mL.
